Results taken from PubChem BioAssay (NCI).
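Each compound was tested at five concentrations against cells in 96-well plates for 48 hours. At the TGI there is no net growth.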

How the values were obtained:
Test in all cases: growth of human tumour cells (NCI), 48 h
SF-268 CNS = tested on: SF-268 CNS
HS 578T breast = tested on: HS 578T breast
SK-OV-3 ovarian = tested on: SK-OV-3 ovarian
HOP-92 NSCLC = tested on: HOP-92 NSCLC
MDA-N = tested on: MDA-N
SF-295 CNS = tested on: SF-295 CNS
COLO 205 colon = tested on: COLO 205 colon
SNB-75 CNS = tested on: SNB-75 CNS
EKVX NSCLC = tested on: EKVX NSCLC
UACC-257 melanoma = tested on: UACC-257 melanoma
SK-MEL-5 melanoma = tested on: SK-MEL-5 melanoma
M14 melanoma = tested on: M14 melanoma
HT29 colon = tested on: HT29 colon
PC-3 prostate = tested on: PC-3 prostate
KM12 colon = tested on: KM12 colon
CAKI-1 renal = tested on: CAKI-1 renal
BT-549 breast = tested on: BT-549 breast
K-562 leukemia = tested on: K-562 leukemia
786-0 renal = tested on: 786-0 renal
HL-60(TB) leukemia = tested on: HL-60(TB) leukemia
A498 renal = tested on: A498 renal
NCI-H226 lung = tested on: NCI-H226 lung
UACC-62 melanoma = tested on: UACC-62 melanoma
RPMI-8226 leukemia = tested on: RPMI-8226 leukemia
LOX IMVI melanoma = tested on: LOX IMVI melanoma
RXF 393 renal = tested on: RXF 393 renal
MCF7 breast = tested on: MCF7 breast
IGROV1 ovarian = tested on: IGROV1 ovarian
MALME-3M melanoma = tested on: MALME-3M melanoma
T-47D breast = tested on: T-47D breast
U251 CNS = tested on: U251 CNS
HCT-15 colon = tested on: HCT-15 colon
TK-10 renal = tested on: TK-10 renal
UO-31 renal = tested on: UO-31 renal
SNB-19 CNS = tested on: SNB-19 CNS
OVCAR-8 ovarian = tested on: OVCAR-8 ovarian
SN12C renal = tested on: SN12C renal
DU-145 prostate = tested on: DU-145 prostate
SF-539 CNS = tested on: SF-539 CNS
A549 NSCLC = tested on: A549 NSCLC
NCI-H522 lung = tested on: NCI-H522 lung
SW-620 colon = tested on: SW-620 colon
MDA-MB-231 breast = tested on: MDA-MB-231 breast
NCI-H23 lung = tested on: NCI-H23 lung
ACHN renal = tested on: ACHN renal
HOP-62 NSCLC = tested on: HOP-62 NSCLC
SK-MEL-2 melanoma = tested on: SK-MEL-2 melanoma
OVCAR-4 ovarian = tested on: OVCAR-4 ovarian
HCC-2998 colon = tested on: HCC-2998 colon
OVCAR-5 ovarian = tested on: OVCAR-5 ovarian
OVCAR-3 ovarian = tested on: OVCAR-3 ovarian
MDA-MB-435 = tested on: MDA-MB-435
SR leukemia = tested on: SR leukemia
SK-MEL-28 melanoma = tested on: SK-MEL-28 melanoma
HCT-116 colon = tested on: HCT-116 colon
MOLT-4 leukemia = tested on: MOLT-4 leukemia
NCI/ADR-RES ovarian = tested on: NCI/ADR-RES ovarian
CCRF-CEM leukemia = tested on: CCRF-CEM leukemia
NCI-H460 lung = tested on: NCI-H460 lung

For CCOC(=O)CCNC(=O)c1cc(C)cc2c1Oc1c(cc(C)cc1C(=O)NCCC(=O)OCC)S2, the TGI (SF-268 CNS) was over 100 µM, the TGI (HS 578T breast) was over 100 µM and the TGI (SK-OV-3 ovarian) was over 100 µM. It also gave a TGI (HOP-92 NSCLC) of 87.8 µM, a TGI (MDA-N) of over 100 µM and a TGI (SF-295 CNS) of over 100 µM. It also gave a TGI (COLO 205 colon) of over 100 µM, a TGI (SNB-75 CNS) of 78.9 µM and a TGI (EKVX NSCLC) of over 100 µM. It also gave a TGI (UACC-257 melanoma) of over 100 µM, a TGI (SK-MEL-5 melanoma) of over 100 µM and a TGI (M14 melanoma) of over 100 µM. The TGI (HT29 colon) was over 100 µM, the TGI (PC-3 prostate) was over 100 µM and the TGI (KM12 colon) was over 100 µM. It also gave a TGI (CAKI-1 renal) of over 100 µM, a TGI (BT-549 breast) of over 100 µM and a TGI (K-562 leukemia) of over 100 µM. The TGI (786-0 renal) was over 100 µM, the TGI (HL-60(TB) leukemia) was over 100 µM and the TGI (A498 renal) was 90.8 µM. It also gave a TGI (NCI-H226 lung) of over 100 µM, a TGI (UACC-62 melanoma) of over 100 µM and a TGI (RPMI-8226 leukemia) of over 100 µM. For the same compound, the TGI (LOX IMVI melanoma) was over 100 µM, the TGI (RXF 393 renal) was 58 µM and the TGI (MCF7 breast) was over 100 µM. The TGI (IGROV1 ovarian) was over 100 µM, the TGI (MALME-3M melanoma) was over 100 µM and the TGI (T-47D breast) was over 100 µM. It also gave a TGI (U251 CNS) of over 100 µM, a TGI (HCT-15 colon) of over 100 µM and a TGI (TK-10 renal) of over 100 µM. It also gave a TGI (UO-31 renal) of over 100 µM, a TGI (SNB-19 CNS) of over 100 µM and a TGI (OVCAR-8 ovarian) of over 100 µM. For the same compound, the TGI (SN12C renal) was over 100 µM, the TGI (DU-145 prostate) was over 100 µM and the TGI (SF-539 CNS) was over 100 µM. For the same compound, the TGI (A549 NSCLC) was over 100 µM, the TGI (NCI-H522 lung) was over 100 µM and the TGI (SW-620 colon) was over 100 µM. It also gave a TGI (MDA-MB-231 breast) of over 100 µM, a TGI (NCI-H23 lung) of over 100 µM and a TGI (ACHN renal) of over 100 µM. The TGI (HOP-62 NSCLC) was over 100 µM, the TGI (SK-MEL-2 melanoma) was over 100 µM and the TGI (OVCAR-4 ovarian) was over 100 µM. For the same compound, the TGI (HCC-2998 colon) was over 100 µM, the TGI (OVCAR-5 ovarian) was over 100 µM and the TGI (OVCAR-3 ovarian) was over 100 µM. For the same compound, the TGI (MDA-MB-435) was over 100 µM, the TGI (SR leukemia) was over 100 µM and the TGI (SK-MEL-28 melanoma) was over 100 µM. For the same compound, the TGI (HCT-116 colon) was over 100 µM, the TGI (MOLT-4 leukemia) was over 100 µM and the TGI (NCI/ADR-RES ovarian) was over 100 µM. The TGI (CCRF-CEM leukemia) was over 100 µM.

Cc1nc2c(ccc3[nH]c4ccccc4c32)s1 was tested, and the TGI (SF-268 CNS) was over 100 µM, the TGI (HS 578T breast) was 46.5 µM and the TGI (SK-OV-3 ovarian) was over 100 µM. It also gave a TGI (NCI-H460 lung) of 79.4 µM, a TGI (HOP-92 NSCLC) of 45.4 µM and a TGI (MDA-N) of over 100 µM. It also gave a TGI (COLO 205 colon) of 37.8 µM, a TGI (SNB-75 CNS) of over 100 µM and a TGI (EKVX NSCLC) of 69.1 µM. For the same compound, the TGI (UACC-257 melanoma) was over 100 µM, the TGI (SK-MEL-5 melanoma) was 29.6 µM and the TGI (M14 melanoma) was 50.2 µM. The TGI (HT29 colon) was 31.3 µM, the TGI (PC-3 prostate) was 47.9 µM and the TGI (KM12 colon) was 56.5 µM. It also gave a TGI (CAKI-1 renal) of over 100 µM, a TGI (BT-549 breast) of 57.3 µM and a TGI (K-562 leukemia) of over 100 µM. For the same compound, the TGI (786-0 renal) was over 100 µM, the TGI (HL-60(TB) leukemia) was over 100 µM and the TGI (A498 renal) was 34.9 µM. For the same compound, the TGI (NCI-H226 lung) was 98.7 µM, the TGI (UACC-62 melanoma) was 41.2 µM and the TGI (RXF 393 renal) was over 100 µM. The TGI (MCF7 breast) was over 100 µM, the TGI (IGROV1 ovarian) was over 100 µM and the TGI (MALME-3M melanoma) was over 100 µM. It also gave a TGI (T-47D breast) of over 100 µM, a TGI (U251 CNS) of 54.3 µM and a TGI (HCT-15 colon) of 51.9 µM. The TGI (TK-10 renal) was 78.1 µM, the TGI (UO-31 renal) was 74.8 µM and the TGI (SNB-19 CNS) was over 100 µM. The TGI (OVCAR-8 ovarian) was over 100 µM, the TGI (SN12C renal) was 76.9 µM and the TGI (DU-145 prostate) was over 100 µM. For the same compound, the TGI (SF-539 CNS) was over 100 µM, the TGI (A549 NSCLC) was over 100 µM and the TGI (NCI-H522 lung) was 35 µM. The TGI (SW-620 colon) was 45.4 µM, the TGI (MDA-MB-231 breast) was 36.4 µM and the TGI (NCI-H23 lung) was 91.7 µM. For the same compound, the TGI (ACHN renal) was over 100 µM, the TGI (HOP-62 NSCLC) was 40 µM and the TGI (SK-MEL-2 melanoma) was 54.7 µM. For the same compound, the TGI (OVCAR-4 ovarian) was over 100 µM, the TGI (HCC-2998 colon) was 30.2 µM and the TGI (OVCAR-5 ovarian) was over 100 µM. It also gave a TGI (OVCAR-3 ovarian) of 64.1 µM, a TGI (MDA-MB-435) of 64.7 µM and a TGI (SR leukemia) of 87.8 µM. It also gave a TGI (SK-MEL-28 melanoma) of 60.3 µM, a TGI (HCT-116 colon) of 37.2 µM and a TGI (MOLT-4 leukemia) of 86.2 µM. The TGI (NCI/ADR-RES ovarian) was over 100 µM and the TGI (CCRF-CEM leukemia) was over 100 µM.
